Laboratory results as given in the CheMixHub drug solubility set.

Test: xn = mol fraction of the nth substance listed, in the solute-free solvent

CC(=O)Nc1ccc(OC(=O)c2ccccc2OC(C)=O)cc1 + CC(C)O + O
solubility (g/100 g solution)
Settings	278.15 K	283.15 K	288.15 K	293.15 K	298.15 K	303.15 K	308.15 K	313.15 K	318.15 K
x2 = 0.03225	0.00278	0.00407	0.0057	0.00819	0.0115	0.0161	0.0217	0.0296	0.0399
x2 = 0.06974	0.0072	0.0102	0.0142	0.0195	0.0268	0.0367	0.0481	0.0636	0.0846
x2 = 0.1139	0.015	0.0212	0.0289	0.0402	0.0537	0.0718	0.0958	0.126	0.162
x2 = 0.1666	0.0246	0.0342	0.0466	0.0633	0.0855	0.114	0.148	0.195	0.252
x2 = 0.2307	0.0358	0.0489	0.0678	0.0921	0.124	0.165	0.217	0.285	0.371
x2 = 0.3103	0.0475	0.0662	0.0897	0.123	0.163	0.215	0.29	0.374	0.488
x2 = 0.4117	0.0571	0.0787	0.109	0.148	0.197	0.26	0.341	0.445	0.574
x2 = 0.5454	0.0663	0.0911	0.125	0.167	0.221	0.295	0.381	0.494	0.642
x2 = 0.7297	0.0717	0.097	0.131	0.177	0.239	0.315	0.412	0.525	0.68

Cc1ccc(Nc2nccc(N(C)c3ccc4c(C)n(C)nc4c3)n2)cc1S(N)(=O)=O + CC#N + CCCCO
solubility (g/100 g solution)
Settings	288.15 K	293.15 K	298.15 K	303.15 K	308.15 K	313.15 K	318.15 K	323.15 K	328.15 K
x2 = 0.311	0.00876	0.015	0.0216	0.0293	0.0367	0.0447	0.0534	0.0638	0.0746
x2 = 0.5462	0.0159	0.0251	0.0355	0.0464	0.0592	0.0722	0.0852	0.1	0.117
x2 = 0.7303	0.0138	0.0237	0.0349	0.047	0.0614	0.0758	0.0904	0.107	0.126
x2 = 0.8784	0.0109	0.0167	0.0237	0.0316	0.0398	0.05	0.0607	0.0728	0.0871

CS(=O)(=O)c1ccc(C(O)C(CF)NC(=O)C(Cl)Cl)cc1 (stereo not drawn) + CC(C)O + O
solubility (g/100 g solution)
Settings	278.15 K	283.15 K	288.15 K	293.15 K	298.15 K	303.15 K	308.15 K	313.15 K	318.15 K
x2 = 0.03225	0.082	0.109	0.146	0.189	0.246	0.32	0.403	0.515	0.641
x2 = 0.06974	0.117	0.159	0.216	0.278	0.362	0.488	0.613	0.798	1
x2 = 0.1139	0.16	0.215	0.286	0.379	0.504	0.64	0.828	1.06	1.35
x2 = 0.1666	0.199	0.266	0.353	0.472	0.608	0.787	1.01	1.29	1.64
x2 = 0.2307	0.237	0.317	0.422	0.56	0.717	0.931	1.19	1.5	1.88
x2 = 0.3103	0.276	0.367	0.481	0.629	0.81	1.05	1.34	1.67	2.1
x2 = 0.4117	0.296	0.398	0.516	0.669	0.873	1.14	1.42	1.78	2.24
x2 = 0.5454	0.308	0.411	0.536	0.702	0.9	1.16	1.47	1.89	2.32
x2 = 0.7297	0.309	0.407	0.537	0.697	0.911	1.14	1.47	1.84	2.29
